Measured values reported in US12478090B2, “Aerosolizable formulation” (NICOVENTURES TRADING LIMITED, priority 2018, dated 2025).
“Also recorded” adds a separate entry of the source.

Key:
[1] = compared to base cyclodextrins such as β-cyclodextrin; cited from earlier work
[2] = Diffusion-Ordered NMR Spectroscopy (DOSY): diffusion coefficient and residence time within cyclodextrin; format: physicochemical; settings: for residency time within 2-hydroxy-propyl-β-cyclodextrin: inferred from DOSY NMR diffusion, Formulations 1 and 2 and spiked ratios 1:4:1 / 1:4:1:1
Description: The interaction between cyclodextrin and menthol and cyclodextrin and nicotine (unprotonated and monoprotonated) was assessed using NMR spectroscopy. The study was conducted on formulations containing
Formulation 1-90.0% (w/w) water, 0.9% (w/w) 1-menthol, 9% (w/w) 2-hydroxy-propyl-β-cyclodextrin, and 0.1% (w/w) nicotine.
Formulation 2-89.9% (w/w) water, 0.9% (w/w) 1-menthol, 9% (w/w) 2-hydroxy-propyl-β-cyclodextrin, 0.1% (w/w) nicotine and 0.1% (w/w) citric acid.
During the NMR studies the assessment of the diffusion coefficient and subsequent residence times of monoprotonated nicotine, unprotonated nicotine, menthol within 2-hydroxy-propyl-β-cyclodextrin. The diffusion coefficient and subsequent residence times were studied as they are understood to provide a qualitative assessment of the degree of interaction of the compound with the complexing agent with each of the components studied. It is understood that encapsulation is not a static state but a dynamic one in which materials are encapsulated (e.g. complexed or bound to an encapsulating agent) for a period of time before release after which they may be subsequently encapsulated. Therefore, decreased residence time indicates decreased interaction with the complexing agent.
Diffusion-Ordered NMR Spectroscopy (DOSY) experiments were selected as suitable for assessment of diffusion times of nicotine and menthol solutions of individual constituents, in the formulation describe above and formulations with spike components to vary the ratios of constituents (nicotine: 2-hydroxy-propyl-β-cyclodextrin:menthol=1:4:1 and nicotine: 2-hydroxy-propyl-β-cyclodextrin:menthol:citric acid=1:4:1:1 molar ratios).

[3] = nicotinium citrate gel added in place of nicotine; no heating or filtration steps

Compound: 2-hydroxy-propyl-β-cyclodextrin
- solubility in water [1]: increased solubility in water

Compound: CC1CCC(C(C)C)C(O)C1 (stereo not drawn) [menthol]
- residency time within 2-hydroxy-propyl-β-cyclodextrin [2]: higher than that of nicotine in both its monoprotonated and unprotonated form; also recorded: mono-protonated nicotine<unprotonated nicotine<menthol

Compound: CN1CCC[C@H]1c1cccnc1 [monoprotonated nicotine]
- diffusion coefficient ([2]; DOSY NMR, aqueous formulation with menthol and 2-hydroxy-propyl-β-cyclodextrin, with vs without citric acid): faster diffusion coefficient compared to the nicotine without citric acid
- residency time within 2-hydroxy-propyl-β-cyclodextrin ([2]; listed as mono-protonated nicotine): mono-protonated nicotine<unprotonated nicotine<menthol

Compound: CN1CCCC1c1cccnc1.O=C(O)CC(O)(CC(=O)O)C(=O)O [nicotinium citrate]
- visual precipitate in formulation [3]: lack of any visual precipitate

Compound: CN1CCC[C@H]1c1cccnc1 [unprotonated nicotine]
- residency time within 2-hydroxy-propyl-β-cyclodextrin [2]: higher residence within 2-hydroxy-propyl-β-cyclodextrin than mono-protonated nicotine; also recorded: mono-protonated nicotine<unprotonated nicotine<menthol
